Assay results reported in patent US10442763B2, “EBNA1 inhibitors and methods using same” (priority 2015, dated 2019).
pIC50: −log10 of the molar value.

molecular target: T1, His-EBNA1 (DNA binding domain of EBNA1, amino acids 459-607) (Epstein-Barr virus, UniProt P03211); assay: Inhibition of 5'-biotin-oPL4624 binding to His-EBNA1 using Alpha Screen technology
T1 construct: made in house; host or cells: E. coli
Procedure: Inhibition of 5′-Biotin-oPL4624 Binding to his-EBNA1 Using Alpha Screen Technology
Assays were performed using the DNA binding domain of EBNA1 (amino acids 459-607), which was His-tagged (His-EBNA1) and the self-complementary biotinylated (bt) oligonucleotide with the sequence 5′-bt-[…]-ATGCTACCC-3′ (bt-oPL4624; or 5′-bt-SEQ ID NO: 1). The protein was expressed in E. coli and purified according to Barwell, et al., 1995, J Biol Chem. 270:20556-9.). The bt-oPL4624 oligonucleotide was purchased from Integrated DNA Technologies, Inc (IDT). AlphaScreen donor, acceptor beads and white, opaque 384-well assay plates were purchased from PerkinElmer, Inc.
Assays contained 15 nM His-EBNA1, 0.2 nM bt-oPL4624, 5 μg/mL AlphaScreen streptavidin donor beads and nickel chelate acceptor beads, and a series of concentrations of test compound ranging from 3.2 nM to 100 μM in a total volume of 40 μL assay buffer (25 mM Tris, pH 7.2, 160 mM NaCl, 1 mM MgCl2). His-EBNA1 (30 nM) and bt-oPL4624 (0.4 nM) were preincubated with 10 μg/mL nickel chelate AlphaScreen acceptor bead, or 10 μg/mL streptavidin AlphaScreen donor bead, respectively, for 30 minutes at room temperature in assay buffer. Twenty microliters of His-EBNA1/acceptor bead mix and bt-oPL4624/donor bead mix were transferred to assay plates containing 0.4 μL of 1:3 serial dilutions of test compounds previously prepared in DMSO at concentrations ranging from 0.32 μM to 10 mM. Non-specific binding was determined with 5 μg/mL AlphaScreen acceptor bead in the absence of His-EBNA1. After 2 hr incubation at room temperature, the AlphaScreen signal was measured on the Envision plate reader (PerkinElmer, Inc.) at 680 nm excitation and 570 nm emission. Inhibition values at each concentration of test compound were determined by setting 100% equal to raw data values in the absence of EBNA1 and 0% equal to the raw data values in the presence of EBNA1. Nonlinear regression fits of the inhibition values to a one-site dose-response equation were performed using GraphPad Prism.

T1 sequence (P03211 459-607): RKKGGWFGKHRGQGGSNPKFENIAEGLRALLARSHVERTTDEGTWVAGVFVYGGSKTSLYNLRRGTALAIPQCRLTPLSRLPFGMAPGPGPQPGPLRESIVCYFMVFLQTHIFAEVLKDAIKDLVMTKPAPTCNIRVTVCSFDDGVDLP

Compared with `O=C(O)c1cccc(C#Cc2ccc(COC3CCS(=O)(=O)CC3)cc2)c1-c1ccc2cc[nH]c2c1` [Entry 26], `O=C(O)c1cccc(C#Cc2ccc(CN3CCS(=O)(=O)CC3)cc2)c1-c1ccc2cc[nH]c2c1` [Entry 148] is higher in pIC50: 4.00 to 5.00 for the first, 5.00 to 6.00 for the second. The second is the more potent here.

`CS(=O)(=O)N1CCC(Cn2ccc3cc(C#Cc4cccc(C(=O)O)c4-c4ccc5cc[nH]c5c4)cnc32)CC1` [Entry 20] and `O=C(O)c1cccc(C#Cc2cnc3c(ccn3CC3CCS(=O)(=O)CC3)c2)c1-c1ccc2cc[nH]c2c1` [Entry 21] fall in the same range of pIC50: 5.00 to 6.00 for the first, 5.00 to 6.00 for the second.

`O=C(O)c1cccc(C#Cc2ccc3c(CN4CCS(=O)(=O)CC4)c[nH]c3c2)c1-c1ccc2cc[nH]c2c1` [Entry 32] and `O=C(O)c1cccc(C#Cc2ccc3c(ccn3CCN3CCS(=O)(=O)CC3)c2)c1-c1ccc2cc[nH]c2c1` [Entry 22] fall in the same range of pIC50: 5.00 to 6.00 for the first, 5.00 to 6.00 for the second.

Compared with `O=C(O)c1cccc(C#Cc2ccc(CN3CCC(CO)CC3)cc2)c1-c1ccc2cc[nH]c2c1` [Entry 151], `O=C(O)c1cccc(C#Cc2ccc(CN3CCC(CCO)CC3)cc2)c1-c1ccc2cc[nH]c2c1` [Entry 150] is higher in pIC50: 4.00 to 5.00 for the first, 5.00 to 6.00 for the second.

First: CN(C)CCn1ccc2cc(C#Cc3cccc(C(=O)O)c3-c3ccc4cc[nH]c4c3)cnc21 [Entry 4]
Second: CN(C)CCCn1ccc2cc(C#Cc3cccc(C(=O)O)c3-c3ccc4cc[nH]c4c3)cnc21 [Entry 5]
The pIC50 of the first is higher: 5.00 to 6.00 for the first, 4.00 to 5.00 for the second. The first is the more potent here.

`CS(=O)(=O)N1CCC(CN2CCc3cc(C#Cc4cccc(C(=O)O)c4-c4ccc5cc[nH]c5c4)ccc3C2)C1` (stereo not shown) [Entry 61] and `CS(=O)(=O)N1CCC(CN2CCc3ccc(C#Cc4cccc(C(=O)O)c4-c4ccc5cc[nH]c5c4)cc3C2)C1` (stereo not shown) [Entry 62] fall in the same range of pIC50: 4.00 to 5.00 for the first, 4.00 to 5.00 for the second.

`O=C(O)c1cccc(C#Cc2ccc(COc3cccnc3)cc2)c1-c1ccc2cc[nH]c2c1` [Entry 90] and `O=C(O)c1cccc(C#Cc2ccc(COc3cccc(Cl)c3)cc2)c1-c1ccc2cc[nH]c2c1` [Entry 91] fall in the same range of pIC50: 5.00 to 6.00 for the first, 5.00 to 6.00 for the second.

First: CS(=O)(=O)N1CC(CN2Cc3ccc(C#Cc4cccc(C(=O)O)c4-c4ccc5cc[nH]c5c4)cc3C2)C1 [Entry 71]
Second: CS(=O)(=O)N1CCC(CN2Cc3ccc(C#Cc4cccc(C(=O)O)c4-c4ccc5cc[nH]c5c4)cc3C2)C1 (stereo not shown) [Entry 70]
The pIC50 of the first is lower: 4.00 to 5.00 for the first, 5.00 to 6.00 for the second. The second is the more potent here.

`O=C(O)c1cccc(C#Cc2ccc(OC3CCOCC3)nc2)c1-c1ccc2cc[nH]c2c1` [Entry 100] and `O=C(O)c1cccc(C#Cc2ccc(OC3CCOCC3)cc2)c1-c1ccc2[nH]ccc2c1` [Entry 193] fall in the same range of pIC50: 5.00 to 6.00 for the first, 5.00 to 6.00 for the second.

First: COc1ccc(C#Cc2cccc(C(=O)O)c2-c2cnc3[nH]ccc3c2)cc1 [Entry 141]
Second: CS(=O)(=O)N1CCN(Cc2ccc(C#Cc3cccc(C(=O)O)c3-c3cnc4[nH]ccc4c3)cc2)CC1 [Entry 180]
The pIC50 of the first is lower: 4.00 to 5.00 for the first, 5.00 to 6.00 for the second.

First: O=C(O)c1cccc(C#Cc2ccc(-c3nn[nH]n3)cc2)c1-c1ccc2cc[nH]c2c1 [Entry 41]
Second: O=C(O)c1cccc(C#Cc2ccc(-c3cnco3)cc2)c1-c1ccc2cc[nH]c2c1 [Entry 43]
The pIC50 of the first is higher: over 6.00 for the first, 5.00 to 6.00 for the second. The first is the more potent here.

First: CS(=O)(=O)N1CCC(CN2Cc3ccc(C#Cc4cccc(C(=O)O)c4-c4ccc5cc[nH]c5c4)cc3C2)CC1 [Entry 72]
Second: CS(=O)(=O)N1CCc2ccc(C#Cc3cccc(C(=O)O)c3-c3ccc4cc[nH]c4c3)cc2C1 [Entry 73]
The pIC50 of the first is lower: 4.00 to 5.00 for the first, 5.00 to 6.00 for the second. The second is the more potent here.

Compared with `O=C(O)c1cccc(C#Cc2cnc3c(ccn3CCCN3CCOCC3)c2)c1-c1ccc2cc[nH]c2c1` [Entry 6], `O=C(O)c1cccc(C#Cc2ccc3c(ccn3CCCN3CCS(=O)(=O)CC3)c2)c1-c1ccc2cc[nH]c2c1` [Entry 24] is lower in pIC50: 5.00 to 6.00 for the first, 4.00 to 5.00 for the second. The first is the more potent here.

First: O=C(O)c1cccc(C#Cc2ccccc2)c1-c1cnc2ncccc2c1 [Entry 115]
Second: O=C(O)c1cccc(C#Cc2ccccc2)c1-c1ccc2cccnc2n1 [Entry 117]
The pIC50 of the first is lower: 3.00 to 4.00 for the first, 4.00 to 5.00 for the second. The second is the more potent here.

First: O=C(O)c1cccc(C#Cc2ccc(C(=O)C3CCOCC3)cc2)c1-c1ccc2cc[nH]c2c1 [Entry 108]
Second: CC(=O)Nc1cc(C#Cc2cccc(C(=O)O)c2-c2ccc3cc[nH]c3c2)ccc1OC1CCOCC1 [Entry 2]
The pIC50 of the first is higher: 5.00 to 6.00 for the first, 4.00 to 5.00 for the second. The first is the more potent here.

`O=C(O)c1cccc(C#Cc2cnc3c(c2)CCCN3)c1-c1ccc2cc[nH]c2c1` [Entry 16] and `CC(C)S(=O)(=O)N1CCc2cc(C#Cc3cccc(C(=O)O)c3-c3ccc4cc[nH]c4c3)ccc2C1` [Entry 77] fall in the same range of pIC50: 5.00 to 6.00 for the first, 5.00 to 6.00 for the second.

`CS(=O)(=O)N1CC(N2CCc3cc(C#Cc4cccc(C(=O)O)c4-c4ccc5cc[nH]c5c4)ccc3C2)C1` [Entry 60] and `CC(=O)N1CCC(CN2CCc3ccc(C#Cc4cccc(C(=O)O)c4-c4ccc5cc[nH]c5c4)cc3C2)C1` (stereo not shown) [Entry 63] fall in the same range of pIC50: 4.00 to 5.00 for the first, 4.00 to 5.00 for the second.

Compared with `Nc1nc2c(s1)C[C@@H](NC(=O)c1ccc(C#Cc3cccc(C(=O)O)c3-c3ccc4cc[nH]c4c3)cc1)CC2` [Entry 200], `Nc1nc(-c2ccc(C#Cc3cccc(C(=O)O)c3-c3ccc4cc[nH]c4c3)cc2)c(C(=O)O)s1` [Entry 129] is higher in pIC50: 5.00 to 6.00 for the first, over 6.00 for the second.

`O=C(O)c1cccc(C#Cc2ccc(COc3ccccc3F)cc2)c1-c1ccc2cc[nH]c2c1` [Entry 89] and `N#Cc1cccc(OCc2ccc(C#Cc3cccc(C(=O)O)c3-c3ccc4cc[nH]c4c3)cc2)c1` [Entry 81] fall in the same range of pIC50: 5.00 to 6.00 for the first, 5.00 to 6.00 for the second.

Compared with `O=C(O)c1cccc(C#Cc2ccc(CN3CCN(C(=O)C4CC4)CC3)cc2)c1-c1ccc2cc[nH]c2c1` [Entry 166], `O=C(O)c1cccc(C#Cc2ccc(CN3CCC(O)CC3)cc2)c1-c1ccc2cc[nH]c2c1` [Entry 154] is lower in pIC50: 5.00 to 6.00 for the first, 4.00 to 5.00 for the second.

Compared with `O=C1CCC(C(=O)NCc2ccc(C#Cc3cccc(C(=O)O)c3-c3ccc4cc[nH]c4c3)cc2)CC1` [Entry 198], `O=C(O)c1cccc(C#Cc2ccc(CN3CCNCC3)cc2)c1-c1ccc2cc[nH]c2c1` [Entry 167] is lower in pIC50: over 6.00 for the first, 4.00 to 5.00 for the second.

`O=C(O)c1cccc(C#Cc2ccc3ccn(CC4CCOCC4)c3c2F)c1-c1ccc2cc[nH]c2c1` [Entry 36] and `O=C(O)c1cccc(C#Cc2ccc3c(CN4CCOCC4)c[nH]c3c2F)c1-c1ccc2cc[nH]c2c1` [Entry 39] fall in the same range of pIC50: 5.00 to 6.00 for the first, 5.00 to 6.00 for the second.

`NC(=O)c1ccc(OCc2ccc(C#Cc3cccc(C(=O)O)c3-c3ccc4cc[nH]c4c3)cc2)cc1` [Entry 86] and `NC(=O)c1cccc(OCc2ccc(C#Cc3cccc(C(=O)O)c3-c3ccc4cc[nH]c4c3)cc2)c1` [Entry 82] fall in the same range of pIC50: 5.00 to 6.00 for the first, 5.00 to 6.00 for the second.

`COc1cc(C#Cc2cccc(C(=O)O)c2-c2ccc3cc[nH]c3c2)ccc1CN1CCC(F)(F)CC1` [Entry 48] and `O=C(O)c1cccc(C#Cc2ccc(CN3CCCC(F)(F)C3)cc2)c1-c1ccc2cc[nH]c2c1` [Entry 159] fall in the same range of pIC50: 5.00 to 6.00 for the first, 5.00 to 6.00 for the second.

First: O=C(O)c1cccc(C#Cc2ccc(CN3CCc4ccccc4C3)cc2)c1-c1ccc2cc[nH]c2c1 [Entry 160]
Second: CCN1CCN(Cc2ccc(C#Cc3cccc(C(=O)O)c3-c3ccc4cc[nH]c4c3)cc2)CC1 [Entry 146]
The pIC50 of the first is higher: 5.00 to 6.00 for the first, 4.00 to 5.00 for the second.

`CS(=O)(=O)N1CCC2(CC1)CN(Cc1ccc(C#Cc3cccc(C(=O)O)c3-c3ccc4cc[nH]c4c3)cc1)C2` [Entry 192] and `CS(=O)(=O)N1CCN(Cc2ccc(C#Cc3cccc(C(=O)O)c3-c3ccc4[nH]ccc4c3)cc2)CC1` [Entry 179] fall in the same range of pIC50: 4.00 to 5.00 for the first, 4.00 to 5.00 for the second.

`NS(=O)(=O)N1CCN(Cc2ccc(C#Cc3cccc(C(=O)O)c3-c3ccc4cc[nH]c4c3)cc2)CC1` [Entry 205] and `O=C(O)c1cccc(C#Cc2ccc(CN3CCCC(C(F)(F)F)C3)cc2)c1-c1ccc2cc[nH]c2c1` (stereo not shown) [Entry 162] fall in the same range of pIC50: 5.00 to 6.00 for the first, 5.00 to 6.00 for the second.

First: CS(=O)(=O)Nc1nc(-c2ccc(C#Cc3cccc(C(=O)O)c3-c3ccc4cc[nH]c4c3)cc2)cs1 [Entry 131]
Second: CC(C)(O)c1ccc(C#Cc2cccc(C(=O)O)c2-c2ccc3cc[nH]c3c2)cc1 [Entry 120]
The pIC50 of the first is higher: over 6.00 for the first, 5.00 to 6.00 for the second. The first is the more potent here.

`O=C(O)c1cccc(C#Cc2ccccc2)c1-c1ccc2cc[nH]c2c1F` [Entry 109] and `O=C(O)c1cccc(C#Cc2ccccc2)c1-c1ccc2scnc2c1` [Entry 111] fall in the same range of pIC50: 4.00 to 5.00 for the first, 4.00 to 5.00 for the second.

`CN1CCN(C(=O)c2ccc(C#Cc3cccc(C(=O)O)c3-c3ccc4cc[nH]c4c3)cc2)CC1` [Entry 202] and `COC1CCN(Cc2ccc(C#Cc3cccc(C(=O)O)c3-c3ccc4[nH]ccc4c3)cc2)CC1` [Entry 178] fall in the same range of pIC50: 4.00 to 5.00 for the first, 4.00 to 5.00 for the second.

`CN(C)S(=O)(=O)NC(=O)c1cccc(C#Cc2ccc(COC3CCOCC3)cc2)c1-c1ccc2cc[nH]c2c1` [Entry 194] and `O=C(O)c1cccc(C#Cc2ccc(COc3ccc(C(F)(F)F)cc3)cc2)c1-c1ccc2cc[nH]c2c1` [Entry 83] fall in the same range of pIC50: 5.00 to 6.00 for the first, 5.00 to 6.00 for the second.

First: COC1CCN(Cc2nc(=O)c3cc(C#Cc4cccc(C(=O)O)c4-c4ccc5cc[nH]c5c4)ccc3[nH]2)CC1 [Entry 133]
Second: CC(C)(C)OC(=O)N1CCC2(CC1)CC(=O)c1cc(C#Cc3cccc(C(=O)O)c3-c3ccc4cc[nH]c4c3)ccc1O2 [Entry 124]
The pIC50 of the first is lower: 4.00 to 5.00 for the first, 5.00 to 6.00 for the second. The second is the more potent here.
